Measurements taken from paper PMC10303271, “Synthesis and Receptor Binding Studies of α5 GABAAR Selective Novel Imidazodiazepines Targeted for Psychiatric and Cognitive Disorders” (Molecules, 2023).

Columns and labels:
[1] = target: T1, 5-HT1A (Homo sapiens, UniProt P08908); test: PDSP primary binding 5-HT1A; settings: 1.5 h; primary binding, 10,000 nM; last figure of the line = mean of the 4 before it; read-out: 5-HT1A, PDSP raw data, mean
T1 construct: purchased NIMH Psychoactive Drug Screening Program (PDSP)
T1 sequence (P08908 1-422): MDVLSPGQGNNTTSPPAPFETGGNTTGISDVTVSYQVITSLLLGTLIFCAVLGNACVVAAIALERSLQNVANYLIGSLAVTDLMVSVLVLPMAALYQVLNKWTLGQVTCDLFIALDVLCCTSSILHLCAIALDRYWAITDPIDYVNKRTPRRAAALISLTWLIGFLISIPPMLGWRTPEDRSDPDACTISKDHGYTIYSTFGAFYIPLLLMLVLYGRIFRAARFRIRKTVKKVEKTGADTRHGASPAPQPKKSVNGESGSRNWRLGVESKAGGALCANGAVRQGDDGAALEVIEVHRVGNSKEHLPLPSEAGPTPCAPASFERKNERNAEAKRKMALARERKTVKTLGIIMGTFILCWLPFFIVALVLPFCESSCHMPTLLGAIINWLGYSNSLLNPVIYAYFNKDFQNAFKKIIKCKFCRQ
Description: (§1) To determine if any off-target receptor-binding effects are present, all the novel ligands were sent to the National Institute of Mental Health (NIMH), Psychoactive Drug Screening Program (PDSP). The ligands were screened over a panel of 47 receptors, ion channels, and transporters to determine any other possible interactions with […]. The hERG-binding was also determined. […] No binding of the test compounds to calcium channels was observed. […] It is necessary to screen the compounds for hERG-binding during the early process of drug discovery. The unintentional binding of many drugs to hERG can cause blockade of hERG K+ channels in the heart, which can cause many side effects including cardiac arrhythmias and sudden death. […] All of the α5 imidazodiazepines were tested for hERG-binding.
(§2) The NIMH PDSP assay protocol book [https://kidbdev.med.unc.edu/databases/PDSP%20Protocols%20II%202013-03-28.pdf accessed on 23 April 2023]. describes the protocols for primary and secondary radio-ligand binding assays. These assays were carried out in a final volume of 125 µL per well in the appropriate binding buffer.
(§3) The binding of a ligand to a receptor, ion channel, or transporter was determined in the […] of 10 µM of the appropriate reference compound. […] Plates were incubated in the dark for 90 min at rt, and the reactions were stopped by vacuum filtration onto 0.3% polyethyleneimine (PEI) soaked 96-well filter mats using a 96-well Filtermateharvester. This was followed by three washes with cold PBS buffer. Radioactivity was then counted on a Microbeta counter. Nonlinear regression was used to analyze the data with N = 6 replicates.

[2] = target: T2, 5-HT3 (Homo sapiens, UniProt P46098); test: PDSP primary binding 5-HT3; settings: 1.5 h; primary binding, 10,000 nM; last figure of the line = mean of the 4 before it; read-out: 5-HT3, PDSP raw data, mean
T2 construct: purchased NIMH Psychoactive Drug Screening Program (PDSP)
T2 sequence (P46098 24-478): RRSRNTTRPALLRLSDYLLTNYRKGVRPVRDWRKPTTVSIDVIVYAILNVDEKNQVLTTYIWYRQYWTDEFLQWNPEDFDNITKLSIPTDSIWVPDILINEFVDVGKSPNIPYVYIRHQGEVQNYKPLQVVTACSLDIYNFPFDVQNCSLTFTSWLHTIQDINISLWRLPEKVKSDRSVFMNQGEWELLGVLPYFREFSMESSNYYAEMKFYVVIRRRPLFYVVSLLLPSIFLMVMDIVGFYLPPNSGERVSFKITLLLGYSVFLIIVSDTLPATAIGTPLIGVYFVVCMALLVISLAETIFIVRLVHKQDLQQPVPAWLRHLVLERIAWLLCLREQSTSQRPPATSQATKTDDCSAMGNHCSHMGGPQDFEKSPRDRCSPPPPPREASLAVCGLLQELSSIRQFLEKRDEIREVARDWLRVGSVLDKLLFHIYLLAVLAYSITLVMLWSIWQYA
Description: as §1, §2, §3

[3] = target: T3, Alpha1D (Homo sapiens, UniProt P25100); test: PDSP primary binding Alpha1D; settings: 1.5 h; primary binding, 10,000 nM; last figure of the line = mean of the 4 before it; read-out: Alpha1D, PDSP raw data, mean
T3 construct: purchased NIMH Psychoactive Drug Screening Program (PDSP)
T3 sequence (P25100 1-572): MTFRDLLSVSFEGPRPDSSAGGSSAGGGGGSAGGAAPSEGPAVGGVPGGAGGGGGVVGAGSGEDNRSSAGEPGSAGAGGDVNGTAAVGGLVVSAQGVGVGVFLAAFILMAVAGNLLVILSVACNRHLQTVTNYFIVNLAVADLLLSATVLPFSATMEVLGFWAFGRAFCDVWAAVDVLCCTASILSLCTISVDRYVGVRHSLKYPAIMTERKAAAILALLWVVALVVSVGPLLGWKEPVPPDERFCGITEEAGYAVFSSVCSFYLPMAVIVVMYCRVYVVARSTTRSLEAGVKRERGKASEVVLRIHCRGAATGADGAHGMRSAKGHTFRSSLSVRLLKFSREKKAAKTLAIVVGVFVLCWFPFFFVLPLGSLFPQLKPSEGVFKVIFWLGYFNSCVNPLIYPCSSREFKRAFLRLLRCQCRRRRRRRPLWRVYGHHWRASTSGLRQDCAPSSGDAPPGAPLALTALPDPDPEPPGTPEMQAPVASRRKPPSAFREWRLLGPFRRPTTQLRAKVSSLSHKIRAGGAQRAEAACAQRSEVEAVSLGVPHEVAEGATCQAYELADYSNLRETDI
Description: as §1, §2, §3

[4] = target: T4, Beta2 (Homo sapiens, UniProt P07550); test: PDSP primary binding Beta2; settings: 1.5 h; primary binding, 10,000 nM; last figure of the line = mean of the 4 before it; read-out: Beta2, PDSP raw data, mean
T4 construct: purchased NIMH Psychoactive Drug Screening Program (PDSP)
T4 sequence (P07550 whole entry): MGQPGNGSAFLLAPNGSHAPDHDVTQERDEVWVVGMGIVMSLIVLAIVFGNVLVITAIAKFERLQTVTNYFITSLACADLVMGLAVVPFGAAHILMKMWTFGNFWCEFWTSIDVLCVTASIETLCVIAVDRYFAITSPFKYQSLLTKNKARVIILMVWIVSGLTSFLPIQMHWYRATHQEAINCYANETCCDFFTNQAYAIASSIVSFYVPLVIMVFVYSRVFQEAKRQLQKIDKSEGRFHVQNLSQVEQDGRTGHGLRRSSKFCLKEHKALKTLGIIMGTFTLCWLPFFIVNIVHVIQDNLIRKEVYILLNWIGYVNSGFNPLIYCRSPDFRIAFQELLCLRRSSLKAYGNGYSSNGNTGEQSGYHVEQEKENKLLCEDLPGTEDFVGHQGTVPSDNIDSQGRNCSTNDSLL
Description: as §1, §2, §3

[5] = target: T5, M3 (Homo sapiens, UniProt P20309); test: PDSP primary binding M3; settings: primary binding, 10,000 nM; last figure of the line = mean of the 4 before it; read-out: M3, PDSP raw data, mean
T5 construct: purchased NIMH Psychoactive Drug Screening Program (PDSP)
T5 sequence (P20309 whole entry): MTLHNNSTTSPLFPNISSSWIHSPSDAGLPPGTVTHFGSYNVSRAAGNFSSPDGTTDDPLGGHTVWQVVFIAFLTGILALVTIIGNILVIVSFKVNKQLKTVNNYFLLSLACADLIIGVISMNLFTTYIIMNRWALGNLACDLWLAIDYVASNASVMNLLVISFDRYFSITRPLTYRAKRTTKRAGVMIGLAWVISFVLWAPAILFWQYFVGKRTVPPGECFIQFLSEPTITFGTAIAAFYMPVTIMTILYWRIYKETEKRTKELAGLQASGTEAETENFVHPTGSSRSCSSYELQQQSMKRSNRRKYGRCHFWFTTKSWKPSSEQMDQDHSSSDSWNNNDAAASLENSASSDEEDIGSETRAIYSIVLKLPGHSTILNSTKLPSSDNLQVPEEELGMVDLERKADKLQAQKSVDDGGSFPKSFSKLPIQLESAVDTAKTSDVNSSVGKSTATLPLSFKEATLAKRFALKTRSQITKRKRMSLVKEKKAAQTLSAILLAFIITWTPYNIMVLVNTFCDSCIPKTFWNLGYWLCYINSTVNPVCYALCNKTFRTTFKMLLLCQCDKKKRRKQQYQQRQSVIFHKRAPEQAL
Description: as §1, §2, §3

| Structure (SMILES) | inhibition at 10 µM [1] [%] | inhibition at 10 µM [2] [%] | inhibition at 10 µM [3] [%] | inhibition at 10 µM [4] [%] | inhibition at 10 µM [5] [%] |
| --- | --- | --- | --- | --- | --- |
| C#Cc1ccc2c(c1)C(c1ccccc1F)=N[C@H](C)c1c(C(=S)N(C)C)ncn1-2 [Compound 33, (R)-8-Ethynyl-6-(2′-fluorophenyl)-N,N,4-trimethyl-4H-benzo[f]imidazo[1,5-a][1,4]diazepine-3-carbothioamide] | 2.37 | -0.89 | 3.57 | -0.87 | 3.03 |
| C#Cc1ccc2c(c1)C(c1ccccc1Cl)=N[C@H](C)c1c(C(=O)NC)ncn1-2 [Compound 21, (R)-6-(2′-Chlorophenyl)-8-ethynyl-N,4-dimethyl-4H-benzo[f]imidazo[1,5-a][1,4]diazepine-3-carboxamide] | 4.88 | 2.85 | -5.53 | -0.28 | -12.9 |
| CCc1noc(-c2ncn3c2[C@@H](C)N=C(c2ccccc2F)c2cc(C4CC4)ccc2-3)n1 [Compound 46, (R)-5-(8-Cyclopropyl-6-(2′-fluorophenyl)-4-methyl-4H-benzo[f]imidazo[1,5-a][1,4]diazepin-3-yl)-3-ethyl-1,2,4-oxadiazole] | 17.8 | 29.8 | 34.9 | -6.06 | 8.95 |
| CC(C)c1noc(-c2ncn3c2[C@@H](C)N=C(c2ccccc2F)c2cc(Cl)ccc2-3)n1 [Compound 37, (R)-5-(8-Chloro-6-(2′-fluorophenyl)-4-methyl-4H-benzo[f]imidazo[1,5-a][1,4]diazepin-3-yl)-3-isopropyl-1,2,4-oxadiazole] | -6 | 13.5 | 4.09 | 6.55 | 15.6 |
| CCc1noc(-c2ncn3c2[C@@H](C)N=C(c2ccccc2F)c2cc(Cl)ccc2-3)n1 [Compound 36, (R)-5-(8-Chloro-6-(2′-fluorophenyl)-4-methyl-4H-benzo[f]imidazo[1,5-a][1,4]diazepin-3-yl)-3-ethyl-1,2,4-oxadiazole] | 3 | -2 | -14.3 | 2.67 | -3.98 |
| C[C@H]1N=C(c2ccccc2F)c2cc(-c3ccccc3)ccc2-n2cnc(C(=O)N(C)C)c21 [Compound 5, (R)-6-(2′-Fluorophenyl)-N,N,4-trimethyl-8-phenyl-4H-benzo[f]imidazo[1,5-a][1,4]diazepine-3-carboxamide] | 2.37 | -0.89 | 3.57 | -0.87 | 3.03 |
| C#Cc1ccc2c(c1)C(c1ccccn1)=N[C@@H](C)c1c(C(=O)N(C)C)ncn1-2 [Compound 31, (S)-8-Ethynyl-N,N,4-trimethyl-6-(pyridin-2′-yl)-4H-benzo[f]imidazo[1,5-a][1,4]diazepine-3-carboxamide] | -0.48 | -3.58 | -6.09 | -0.05 | -13 |
| C#Cc1ccc2c(c1)C(c1ccccn1)=N[C@@H](C)c1c(C(=O)NC)ncn1-2 [Compound 23, (S)-8-Ethynyl-N,4-dimethyl-6-(pyridin-2′-yl)-4H-benzo[f]imidazo[1,5-a][1,4]diazepine-3-carboxamide] | 2.23 | -7.15 | -6.54 | -5.89 | 0.11 |
| C#Cc1ccc2c(c1)C(c1ccccc1Cl)=N[C@H](C)c1c(C(=O)N(C)CC)ncn1-2 [Compound 29] | -2.7 | -4.07 | -11.9 | -7.07 | -8.9 |
| CCc1noc(-c2ncn3c2CN=C(c2ccccc2F)c2cc(C4CC4)ccc2-3)n1 [Compound 44, 5-(8-Cyclopropyl-6-(2′-fluorophenyl)-4H-benzo[f]imidazo[1,5-a][1,4]diazepin-3-yl)-3-ethyl-1,2,4-oxadiazole] | 36.1 | 12.8 | 1.28 | 3.97 | -0.6 |
| CCc1noc(-c2ncn3c2[C@@H](C)N=C(c2ccccc2F)c2cc(-c4ccccc4)ccc2-3)n1 [Compound 35, (R)-3-Ethyl-5-(6-(2′-fluorophenyl)-4-methyl-8-phenyl-4H-benzo[f]imidazo[1,5-a][1,4]diazepin-3-yl)-1,2,4-oxadiazole] | 28.9 | -9.33 | -0.4 | 0.34 | 9.75 |
| C[C@H]1N=C(c2ccccc2F)c2cc(Cl)ccc2-n2cnc(-c3nc(C4CC4)no3)c21 [Compound 38, (R)-5-(8-Chloro-6-(2′-fluorophenyl)-4-methyl-4H-benzo[f]imidazo[1,5-a][1,4]diazepin-3-yl)-3-cyclopropyl-1,2,4-oxadiazole] | -1.57 | 13.5 | -2.84 | 1.75 | 19.3 |
